Measured values taken from patent publication US11161830B2, “4-pyridone compound or salt thereof, and pharmaceutical composition and formulation including same” (priority 2017, dated 2021).
Where “and” joins values, the source holds several entries; their conditions need not be identical. Identical values can stand only once.

System: HBV genotype C
Test: Test Example 3-2: in vivo efficacy study in PXB mouse (chimeric mouse with human hepatocytes), first and second study
Design: species or system hepatitis B virus
Conditions: second study, orally 3 mg/kg twice a day for 14 days from day 35, individual mice, 3 mg/kg
Description: An in vivo efficacy study with a PXB mouse (a chimeric mouse with human hepatocytes) was carried out in PhenixBio Co., Ltd. 19-Week-or-more-old male mice having body weights of 10.5 g or more after the elapse of 13 weeks or more from the infection with HBV genotype C were allocated into the respective groups and used. The studies were carried out twice, and a 21-day administration withdrawal period was provided between the first study and the second study.
The first administration day in the first study was taken as day 0, and the compound of Example 6-5 was orally administered at 1 mg/kg, 3 mg/kg, 10 mg/kg, and 30 mg/kg twice a day, or 0.5% methylcellulose (vehicle) was orally administered once a day for 14 days. Before administration on day 0, day 3, Day 7, and day 10, and on day 14, the blood was collected from the orbital venous plexus under anesthesia with isoflurane.
The first administration day in the second study was taken as day 35, and the compounds of Examples 19-2 and 20-2 were each orally administered at 3 mg/kg twice a day, or 0.5% methylcellulose (vehicle) was orally administered once a day for 14 days. Before administration on day 35, day 38, day 42, and day 45, the blood was collected from the orbital venous plexus under anesthesia with isoflurane. On day 49, the blood was collected from the heart under anesthesia with isoflurane.
The serum was separated from the collected blood and purified with a QIAamp (registered trademark) DNA Blood Mini Kit (manufactured by QIAGEN). The amount of HBV-DNA in the obtained solution was absolutely quantified by a real-time PCR method. In addition, the amount of HBsAg in the serum was absolutely quantified by chemiluminescent enzyme immunoassay using Lumipulse (registered trademark) HBsAg-HQ (manufactured by Fujirebio Inc.).

Q: With COCCO[C@@H]1CCN(c2ccc(-c3cc(=O)c(C(=O)O)cn3-c3ccc4nc(N5CCC[C@@H]5COC)sc4c3)cc2)C1 [Example 19-2, 6-(4-((R)-3-(2-methoxyethoxy)pyrrolidin-1-yl)phenyl)-1-(2-((R)-2-(methoxymethyl)pyrrolidin-1-yl)benzo[d]thiazol-6-yl)-4-oxo-1,4-dihydropyridine-3-carboxylic acid] as the compound, how does the HBV-DNA in blood (Day 35 (before administration)) read?
A: 6.1E+08 copies/mL and 3.7E+08 copies/mL

Q: And the HBsAg in serum (Day 35 (before administration))?
A: 1,872 IU/mL and 2,473 IU/mL

Q: And the HBV-DNA in blood (Day 38)?
A: 2.1E+08 copies/mL and 6.2E+08 copies/mL

Q: What about the HBsAg in serum (Day 38) of the same compound?
A: 968 IU/mL and 2,558 IU/mL

Q: What about the HBV-DNA in blood (Day 42) of the same compound?
A: 3.3E+08 copies/mL and 2.5E+08 copies/mL

Q: What about the HBsAg in serum (Day 42) of the same compound?
A: 992 IU/mL and 1,238 IU/mL

Q: What about the HBV-DNA in blood (Day 45) of the same compound?
A: 4.2E+08 copies/mL and 3.0E+08 copies/mL

Q: What about the HBsAg in serum (Day 45) of the same compound?
A: 1,548 IU/mL and 1,644 IU/mL

Q: What about the HBV-DNA in blood (Day 49) of the same compound?
A: 1.4E+08 copies/mL and 1.8E+08 copies/mL

Q: What about the HBsAg in serum (Day 49) of the same compound?
A: 1,509 IU/mL and 1,348 IU/mL
